Source: patent publication US20170140097A1, “Methods For Identifying Agents With Desired Biological Activity” (The Procter & Gamble Company, priority 2012, published 2017)

How the values were obtained:
[1] = system: dandruff average condition profile; test: Signature-free query for agents with gene expression profiles most different from a query condition (dandruff) (FIG. 17); conditions: greater distance = more likely to reverse the condition
Source text: Turning next to the method 110, FIG. 10 depicts a method 150 for performing a query for perturbagens eliciting a biological response that is dissimilar to that induced by a condition (e.g., chemicals likely to reverse a particular condition in a cell) (block 112). The method includes determining an average condition profile to use as a query (block 152), as described above. Specifically, the average condition profile (also referred to as an “adjusted condition gene expression profile”) may be calculated by finding the average expression value for each of the subset of probes used to learn the expression matrix. That is, if all of probes ID1-IDN (referring to FIG. 13) were used to learn the expression matrix, the average expression profile for a condition tested in instances 3A-10A and 3B-10B would include an average expression value for probe ID1: The average condition profile is projected onto the projection space (block 154). The distance from the average condition profile to each of the perturbagens in the projection space matrix is determined (block 156) and, at least in some embodiments, the perturbagens are ranked according to the distance of each in the projection space from the average condition profile (block 158). In some embodiments, the distance is calculated as a cosine distance. In some embodiments, the distance is calculated as a Euclidean distance. […]

[2] = system: MCF7 cell line; test: Signature-free query for agents with biological activity similar to estradiol in cell line MCF7 (FIG. 15); type: cell-based; conditions: cell line MCF7 (expresses estrogen receptors); top five and bottom five chemicals
Source text: Using the projection space matrix, it is possible to determine the similarity (or difference) between gene expression profiles in the projection space. The methods 100 and 110, for example, perform queries for similar biological activity (block 108) and biological dissimilarity (i.e., agents most likely to reverse a clinical endpoint) (block 112), respectively, by looking at the distances between instances depicted in the projection space matrix. Turning first to the method 100, FIG. 9 depicts a method 140 for performing a query for similar biological activity between instances mapping to two points in the projection space (e.g., for performing a query for similar activity between perturbagens) (block 108). […]
A query perturbagen (also referred to as a query agent) is then selected from the perturbagens in the projection space matrix (block 144). […] The distance from the query perturbagen in the projection space is calculated for each instance (or for a selected subset of instances) in the projection space matrix (block 146). In some embodiments, the distance is calculated as a cosine distance. In some embodiments, the distance is calculated as a Euclidean distance. […]
With reference to FIGS. 15 and 16, the effect of different perturbagens on different cell types at the transcriptional level is readily apparent. […]

SMILES	ranking according to distance from the query condition [1]	ranking according to distance from query perturbagen estradiol [2]
CC(C)(C)C(=O)C(Oc1ccc(Cl)cc1)n1ccnc1 (stereo not shown) [Climbazole]	more distant from the query condition	
CCN(CC)CCOc1ccc(C(=C(Cl)c2ccccc2)c2ccccc2)cc1 [Clomifene]		most dissimilar
C[C@]12CC[C@@H]3c4ccc(O)cc4C[C@@H](CCCCCCCCC[S+]([O-])CCCC(F)(F)C(F)(F)F)[C@H]3[C@@H]1CC[C@@H]2O (stereo partly shown) [Fulvestrant]		most dissimilar
CC(=O)N1CCN(c2ccc(OCC3COC(Cn4ccnc4)(c4ccc(Cl)cc4Cl)O3)cc2)CC1 (stereo not shown) [Ketocanozole]	more distant from the query condition	
